# Results taken from patent US6362369B1, “Phthalic acid diamide derivatives fluorine-containing aniline compounds as starting material, agricultural and horticultural insecticides, and a method for application of the insecticides” (Nihon Nohyaku Co., Ltd., priority 1997, dated 2002).
# Experiments:
# Type in all cases: in vivo
# [1] = test system: diamondback moth (Plutella xylostella); assay: Insecticidal effect on diamondback moth (Test Example 1); conditions: for Insecticidal effect, Test Example 1 / Insecticidal effect (Test Example 1), judged from mortality: diamondback moth; for Insecticidal effect (Test Example 1), judged from mortality: judged by the criterion of Test Example 1; for Insecticidal effect on diamondback moth (Test Example 1), judged grade: mortality judged according to the criterion shown in Test Example 1
# How it was run: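 Triplicate groups of 10 insects: eggs laid on Chinese cabbage seedling by adults, seedling immersed then air-dried, kept at 25° C. Day-6 hatch counts gave mortality, rated by criterion.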
# [2] = test system: common cutworm (Spodoptera Litura); assay: Insecticidal effect on common cutworm (Test Example 2); conditions: 500 ppm, 25° C.; for Insecticidal effect, Test Example 2: cabbage leaf immersed; for Insecticidal effect, Test Example 2 / Insecticidal effect on common cutworm (Test Example 2), judged grade: eight days after inoculation; for Insecticidal effect (Test Example 2), judged from mortality / Insecticidal effect on common cutworm (Test Example 2), judged grade: cabbage leaf dip; for Insecticidal effect (Test Example 2), judged from mortality: 8 days after inoculation; for Insecticidal effect on common cutworm (Test Example 2), judged grade: second-instar larvae
# How it was run: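 Insecticidal effect was rated from percent mortality of second-instar larvae exposed to air-dried treatment at 25° C for 8 days.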
# [3] = test system: rice leafroller (Cnaphalocrocis medinalis); assay: Insecticidal effect on rice leafroller (Test Example 3); conditions: 500 ppm, 25° C., humidity 70%; for Insecticidal effect, Test Example 3: rice lamina immersed; for Insecticidal effect, Test Example 3 / Insecticidal effect on rice leafroller (Test Example 3), judged grade: four days after inoculation; for Insecticidal effect (Test Example 3), judged from mortality / Insecticidal effect on rice leafroller (Test Example 3), judged grade: rice lamina dip; for Insecticidal effect (Test Example 3), judged from mortality: 4 days after inoculation; for Insecticidal effect on rice leafroller (Test Example 3), judged grade: third-instar larvae
# How it was run: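 Insecticidal effect is judged by a predefined criterion from dead/alive counts four days after infesting air-dried lamina with third-instar larvae, kept on moistened filter paper at 25° C, 70% humidity.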
# [4] = mortality judged by criterion of Test Example 1
# [5] = common cutworm second-instar larvae
# [6] = rice leafroller third-instar larvae
# [7] = second-instar larvae of common cutworm
# [8] = third-instar larvae of rice leafroller
# [9] = judged by the mortality criterion of Test Example 1
SMILES,"Insecticidal effect, Test Example 1 [1, 4]","Insecticidal effect, Test Example 2 [2, 5]","Insecticidal effect, Test Example 3 [3, 6]","Insecticidal effect, Test Example 1 [1, 9]","Insecticidal effect, Test Example 2 [2, 7]","Insecticidal effect, Test Example 3 [3, 8]",also measured
Cc1cc([S+]([O-])C(F)(F)F)ccc1NC(=O)c1cccc(I)c1C(=O)NC(C)C (stereo not drawn) [compound 1168],A (100),A (100),A (100),–,–,–,–
CCN(CC)C(=O)c1c(Cl)cccc1C(=O)Nc1ccc(OC(F)(F)F)cc1C [compound 1536],–,–,–,–,–,–,"Insecticidal effect (Test Example 1), judged from mortality [1]: A (100); Insecticidal effect (Test Example 2), judged from mortality [2, 7]: A (100); Insecticidal effect (Test Example 3), judged from mortality [3, 8]: A (100)"
CC(C)NC(=O)c1c(I)cccc1C(=O)Nc1ccc(OC(F)F)cc1C(F)(F)F [compound 409],–,–,–,A (100),A (100),A (100),–
CCN(CC)C(=O)c1c(F)cccc1C(=O)Nc1ccc(C(F)(F)C(F)(F)F)cc1Cl [compound 1531],–,–,–,–,–,–,"Insecticidal effect (Test Example 1), judged from mortality [1]: A (100); Insecticidal effect (Test Example 2), judged from mortality [2, 7]: A (100); Insecticidal effect (Test Example 3), judged from mortality [3, 8]: A (100)"
CCc1cccc(C(=O)NC(C)C)c1C(=O)Nc1ccc(Cl)cc1C [compound 753],–,–,–,–,–,–,"Insecticidal effect on diamondback moth (Test Example 1), judged grade [1]: A (100); Insecticidal effect on common cutworm (Test Example 2), judged grade [2]: A (100); Insecticidal effect on rice leafroller (Test Example 3), judged grade [3]: D (79-50)"
COc1ccc(-c2ccccc2)cc1NC(=O)c1cccc(Cl)c1C(=O)NC(C)C [compound 1296],A (100),A (100),A (100),–,–,–,–
CC(C)NC(=O)c1cccc(I)c1C(=O)Nc1ccc(OC(F)(F)C(F)OC(F)(F)C(F)(F)C(F)(F)F)cc1 (stereo not drawn) [compound 419],–,–,–,A (100),A (100),A (100),–
Cc1cc(C(F)(C(F)(F)F)C(F)(F)F)ccc1NC(=O)c1ccc(Cl)c(Cl)c1C(=O)NC(C)C [compound 1223],A (100),A (100),A (100),–,–,–,–
Cc1cc([S+]([O-])C(F)(F)F)ccc1NC(=O)c1cccc(I)c1C(=O)NC(C)(C)C (stereo not drawn) [compound 1169],A (100),A (100),A (100),–,–,–,–
CC(C)NC(=O)c1ccccc1C(=O)Nc1ccc(OC(F)(F)F)cc1Cl [compound 47],–,–,–,A (100),D (79-50),A (100),–
CC(C)NC(=O)c1c(Cl)cccc1C(=O)Nc1ccc(OC(F)(F)C(F)OC(F)(F)C(F)(F)C(F)(F)F)cc1 (stereo not drawn) [compound 93],–,–,–,A (100),A (100),A (100),–
CCCN(CC)C(=O)c1c(F)cccc1C(=O)Nc1ccc(C(F)(F)C(F)(F)F)cc1C [compound 1581],–,–,–,–,–,–,"Insecticidal effect (Test Example 1), judged from mortality [1]: A (100); Insecticidal effect (Test Example 2), judged from mortality [2, 7]: A (100); Insecticidal effect (Test Example 3), judged from mortality [3, 8]: A (100)"
Cc1cc(OC(F)(F)C(F)F)ccc1NC(=O)c1cccc([N+](=O)[O-])c1C(=O)NC(C)C [compound 712],–,–,–,–,–,–,"Insecticidal effect on diamondback moth (Test Example 1), judged grade [1]: A (100); Insecticidal effect on common cutworm (Test Example 2), judged grade [2]: A (100); Insecticidal effect on rice leafroller (Test Example 3), judged grade [3]: A (100)"
Cc1cc(C(F)(F)C(F)(F)F)ccc1NC(=O)c1cccc(Cl)c1C(=O)NC(C)(C)C#Cc1cccs1 [compound 1479],–,–,–,–,–,–,"Insecticidal effect (Test Example 1), judged from mortality [1]: A (100); Insecticidal effect (Test Example 2), judged from mortality [2, 7]: A (100); Insecticidal effect (Test Example 3), judged from mortality [3, 8]: A (100)"
Cc1cc(C(F)(F)C(F)(F)C(F)(F)C(F)(F)F)ccc1NC(=O)c1c(I)cccc1C(=O)NC(C)C [compound 440],–,–,–,A (100),C (89-80),B (99-90),–
Cc1cc(C(F)(F)C(F)(F)F)ccc1NC(=O)c1cccc(Cl)c1C(=O)NCc1cccc(Cl)c1Cl [compound 1353],A (100),A (100),A (100),–,–,–,–
